Experimental data taken from US20120040464A1, “METHOD FOR GENERATING HOMOPLASMIC CELLS FROM HETEROPLASMIC CELLS” (NATIONAL CENTER OF NEUROLOGY AND PSYCHIATRY, priority 2009, published 2012).

System: MELAS cells (primary culture cells from the skeletal muscle and skin of MELAS patients)
Conditions: 100 μM, 30 minutes
Experimental: MELAS cells were plated to result in a cell density of 1×10^5 to 1×10^6 cells/mL in the presence of DMEM containing 10% FCS, and they were then cultured at 37° C. in a 5% CO2 atmosphere for 3 days. After completion of the culture for 3 days, when the cell density reached 5×10^5 to 6×10^6 cells/mL, the cells were diluted by a factor of 10^4 to 1.2×10^5. The resultant cells were plated and were further cultured for 15 days. After completion of the culture for 15 days, several single colonies of cells were selected, and DNA was then extracted by a common method. Using the extracted DNA sample as a template, PCR was carried out with a primer pair for amplifying a site around the nucleotide at position 3243 of the mtDNA. Thereafter, the PCR product was treated with ApaI. In the case of normal mtDNA, the sequence around the nucleotide at position 3243 is GAGCCC (wherein the underlined portion corresponds to the nucleotide at position 3243). […] Accordingly, it becomes possible to evaluate the heteroplasmic state of the cells by calculating the ratio of the 182-bp and 112-bp bands to the 294-bp bands (see Goto et al., Nature, 348, 651-653, 1990 for the details of this method).
Thereafter, the cells were washed with PBS three times, and were then cultured for 3 days. After completion of the culture for 3 days, when the cell density reached 5×10^5 to 6×10^6 cells/mL, the cells were diluted by a factor of 10^4 to 1.2×10^5. The resultant cells were plated and were further cultured for 15 days. After completion of the culture for 15 days, several single colonies of cells were selected, and DNA was then extracted by a common method. The intracellular percentage of the A3243G substitution mutation of mtDNA was examined with respect to the obtained DNA samples by the same method as described above.

OO [hydrogen peroxide]
percentage of A3243G substitution mutation in cell clones obtained after a hydrogen peroxide treatment (then 3 days and 15 days culture, single-colony clones with decreased percentage, e.g. clone 16, clone 25): ~0% | percentage of A3243G substitution mutation in clones where it became higher than without hydrogen peroxide treatment (e.g. clones 15, 27, 29, 32, 34, 35, 36, 39, untreated 30%): > 30% | effect of treatment on homoplasmic state of the cells (MELAS cells): promotes the conversion of the cells to a homoplasmic state
